Test: xn = mol fraction of the nth substance listed

CC[N+](CC)(CC)CC.F[B-](F)(F)F + CC#N
100 kPa
Details | electrical conductivity [S/m] | viscosity [mPa·s]
293.15 K, x1 = 0.004202 | – | 0.42
293.15 K, x1 = 0.008244 | – | 0.438
293.15 K, x1 = 0.01214 | – | 0.455
293.15 K, x1 = 0.0162 | – | 0.474
293.15 K, x1 = 0.02 | 2.88 | –
293.15 K, x1 = 0.0201 | – | 0.484
293.15 K, x1 = 0.02405 | – | 0.506
293.15 K, x1 = 0.02791 | – | 0.531
293.15 K, x1 = 0.0301 | 3.6 | –
293.15 K, x1 = 0.03183 | – | 0.55
293.15 K, x1 = 0.03568 | – | 0.573
293.15 K, x1 = 0.03943 | – | 0.593
293.15 K, x1 = 0.0499 | 4.6 | –
293.15 K, x1 = 0.0698 | 5.04 | –
293.15 K, x1 = 0.08 | 5.32 | –
293.15 K, x1 = 0.1 | 5.56 | –
293.15 K, x1 = 0.1101 | 5.58 | –
298.15 K, x1 = 0.004202 | – | 0.401
298.15 K, x1 = 0.008244 | – | 0.417
298.15 K, x1 = 0.01214 | – | 0.435
298.15 K, x1 = 0.0162 | – | 0.452
298.15 K, x1 = 0.02 | 2.99 | –
298.15 K, x1 = 0.0201 | – | 0.46
298.15 K, x1 = 0.02405 | – | 0.48
298.15 K, x1 = 0.02791 | – | 0.507
298.15 K, x1 = 0.0301 | 3.65 | –
298.15 K, x1 = 0.03183 | – | 0.525
298.15 K, x1 = 0.03568 | – | 0.546
298.15 K, x1 = 0.03943 | – | 0.566
298.15 K, x1 = 0.0499 | 4.78 | –
298.15 K, x1 = 0.0698 | 5.24 | –
298.15 K, x1 = 0.08 | 5.59 | –
298.15 K, x1 = 0.1 | 5.85 | –
298.15 K, x1 = 0.1101 | 5.88 | –
303.15 K, x1 = 0.004202 | – | 0.383
303.15 K, x1 = 0.008244 | – | 0.399
303.15 K, x1 = 0.01214 | – | 0.415
303.15 K, x1 = 0.0162 | – | 0.432
303.15 K, x1 = 0.02 | 3.11 | –
303.15 K, x1 = 0.0201 | – | 0.438
303.15 K, x1 = 0.02405 | – | 0.457
303.15 K, x1 = 0.02791 | – | 0.484
303.15 K, x1 = 0.0301 | 3.74 | –
303.15 K, x1 = 0.03183 | – | 0.501
303.15 K, x1 = 0.03568 | – | 0.521
303.15 K, x1 = 0.03943 | – | 0.541
303.15 K, x1 = 0.0499 | 4.98 | –
303.15 K, x1 = 0.0698 | 5.48 | –
303.15 K, x1 = 0.08 | 5.85 | –
303.15 K, x1 = 0.1 | 6.14 | –
303.15 K, x1 = 0.1101 | 6.18 | –
308.15 K, x1 = 0.004202 | – | 0.367
308.15 K, x1 = 0.008244 | – | 0.381
308.15 K, x1 = 0.01214 | – | 0.397
308.15 K, x1 = 0.0162 | – | 0.413
308.15 K, x1 = 0.02 | 3.22 | –
308.15 K, x1 = 0.0201 | – | 0.419
308.15 K, x1 = 0.02405 | – | 0.436
308.15 K, x1 = 0.02791 | – | 0.463
308.15 K, x1 = 0.0301 | 3.88 | –
308.15 K, x1 = 0.03183 | – | 0.478
308.15 K, x1 = 0.03568 | – | 0.497
308.15 K, x1 = 0.03943 | – | 0.517
308.15 K, x1 = 0.0499 | 5.18 | –
308.15 K, x1 = 0.0698 | 5.71 | –
308.15 K, x1 = 0.08 | 6.11 | –
308.15 K, x1 = 0.1 | 6.43 | –
308.15 K, x1 = 0.1101 | 6.48 | –
313.15 K, x1 = 0.004202 | – | 0.352
313.15 K, x1 = 0.008244 | – | 0.365
313.15 K, x1 = 0.01214 | – | 0.381
313.15 K, x1 = 0.0162 | – | 0.396
313.15 K, x1 = 0.02 | 3.33 | –
313.15 K, x1 = 0.0201 | – | 0.4
313.15 K, x1 = 0.02405 | – | 0.417
313.15 K, x1 = 0.02791 | – | 0.442
313.15 K, x1 = 0.0301 | 4.03 | –
313.15 K, x1 = 0.03183 | – | 0.457
313.15 K, x1 = 0.03568 | – | 0.474
313.15 K, x1 = 0.03943 | – | 0.494
313.15 K, x1 = 0.0499 | 5.38 | –
313.15 K, x1 = 0.0698 | 5.95 | –
313.15 K, x1 = 0.08 | 6.36 | –
313.15 K, x1 = 0.1 | 6.72 | –
313.15 K, x1 = 0.1101 | 6.78 | –
318.15 K, x1 = 0.004202 | – | 0.338
318.15 K, x1 = 0.008244 | – | 0.35
318.15 K, x1 = 0.01214 | – | 0.365
318.15 K, x1 = 0.0162 | – | 0.38
318.15 K, x1 = 0.02 | 3.44 | –
318.15 K, x1 = 0.0201 | – | 0.383
318.15 K, x1 = 0.02405 | – | 0.399
318.15 K, x1 = 0.02791 | – | 0.423
318.15 K, x1 = 0.0301 | 4.17 | –
318.15 K, x1 = 0.03183 | – | 0.437
318.15 K, x1 = 0.03568 | – | 0.454
318.15 K, x1 = 0.03943 | – | 0.474
318.15 K, x1 = 0.0499 | 5.58 | –
318.15 K, x1 = 0.0698 | 6.18 | –
318.15 K, x1 = 0.08 | 6.59 | –
318.15 K, x1 = 0.1 | 7.01 | –
318.15 K, x1 = 0.1101 | 7.08 | –
323.15 K, x1 = 0.004202 | – | 0.326
323.15 K, x1 = 0.008244 | – | 0.337
323.15 K, x1 = 0.01214 | – | 0.35
323.15 K, x1 = 0.0162 | – | 0.364
323.15 K, x1 = 0.02 | 3.54 | –
323.15 K, x1 = 0.0201 | – | 0.367
323.15 K, x1 = 0.02405 | – | 0.383
323.15 K, x1 = 0.02791 | – | 0.405
323.15 K, x1 = 0.0301 | 4.32 | –
323.15 K, x1 = 0.03183 | – | 0.418
323.15 K, x1 = 0.03568 | – | 0.435
323.15 K, x1 = 0.03943 | – | 0.455
323.15 K, x1 = 0.0499 | 5.77 | –
323.15 K, x1 = 0.0698 | 6.41 | –
323.15 K, x1 = 0.08 | 6.84 | –
323.15 K, x1 = 0.1 | 7.27 | –
323.15 K, x1 = 0.1101 | 7.38 | –
328.15 K, x1 = 0.02 | 3.65 | –
328.15 K, x1 = 0.0301 | 4.46 | –
328.15 K, x1 = 0.0499 | 5.96 | –
328.15 K, x1 = 0.0698 | 6.63 | –
328.15 K, x1 = 0.08 | 7.08 | –
328.15 K, x1 = 0.1 | 7.56 | –
328.15 K, x1 = 0.1101 | 7.68 | –
333.15 K, x1 = 0.02 | 3.75 | –
333.15 K, x1 = 0.0301 | 4.59 | –
333.15 K, x1 = 0.0499 | 6.15 | –
333.15 K, x1 = 0.0698 | 6.86 | –
333.15 K, x1 = 0.08 | 7.33 | –
333.15 K, x1 = 0.1 | 7.83 | –
333.15 K, x1 = 0.1101 | 8.01 | –
338.15 K, x1 = 0.02 | 3.85 | –
338.15 K, x1 = 0.0301 | 4.73 | –
338.15 K, x1 = 0.0499 | 6.34 | –
338.15 K, x1 = 0.0698 | 7.08 | –
338.15 K, x1 = 0.08 | 7.57 | –
338.15 K, x1 = 0.1 | 8.15 | –
338.15 K, x1 = 0.1101 | 8.28 | –
343.15 K, x1 = 0.02 | 3.95 | –
343.15 K, x1 = 0.0301 | 4.86 | –
343.15 K, x1 = 0.0499 | 6.52 | –
343.15 K, x1 = 0.0698 | 7.29 | –
343.15 K, x1 = 0.08 | 7.8 | –
343.15 K, x1 = 0.1 | 8.43 | –
343.15 K, x1 = 0.1101 | 8.57 | –
348.15 K, x1 = 0.02 | 4.04 | –
348.15 K, x1 = 0.0301 | 4.99 | –
348.15 K, x1 = 0.0499 | 6.7 | –
348.15 K, x1 = 0.0698 | 7.51 | –
348.15 K, x1 = 0.08 | 8.04 | –
348.15 K, x1 = 0.1 | 8.73 | –
348.15 K, x1 = 0.1101 | 8.84 | –

CN1CCCC1=O + CCCCCC[n+]1ccn(C)c1.N#C[S-]
101 kPa, x2 = 0
Details | viscosity [mPa·s]
288.15 K | 2.133
298.15 K | 1.791
308.15 K | 1.548
318.15 K | 1.312

CN(C)C=O + CC[n+]1ccn(C)c1.O=S(=O)([O-])C(F)(F)F
Details | viscosity [mPa·s]
298.15 K, 100 kPa, x1 = 1 | 0.81

CCCC[n+]1ccn(C)c1.F[P-](F)(F)(F)(F)F + O=C1CCCC1
Details | viscosity [mPa·s]
298.15 K, 101.3 kPa, x2 = 0 | 270

CCCC[P+](CCCC)(CCCC)CCCC.[O-]c1ccccn1 + O=C=O
Details | viscosity [mPa·s]
293 K, 101 kPa, x2 = 0.5475 | 474

CC(CC(C)(C)C)CP(=O)([O-])CC(C)CC(C)(C)C.CCCCCCCCCCCCCC[P+](CCCCCC)(CCCCCC)CCCCCC + O
100 kPa
Details | viscosity [mPa·s]
298.15 K, x1 = 0.1299 | 139
323.15 K, x1 = 0.7943 | 264

CCCC[n+]1ccn(C)c1.O=S(=O)([N-]S(=O)(=O)C(F)(F)F)C(F)(F)F + CCCCCCO
Details | viscosity [mPa·s]
298 K, 100 kPa, x1 = 1 | 49.7

CC#N + CCCC[P+](CCCC)(CCCC)CCCC.F[B-](F)(F)F
100 kPa, x2 = 0
Details | viscosity [mPa·s]
293.15 K | 0.354
298.15 K | 0.338
303.15 K | 0.324
308.15 K | 0.31
313.15 K | 0.298
318.15 K | 0.286

CCCC[n+]1ccccc1.O=S(=O)([N-]S(=O)(=O)C(F)(F)F)C(F)(F)F + CCCC[n+]1ccccc1.F[B-](F)(F)F
101 kPa
Details | viscosity [mPa·s]
303.15 K, x1 = 0.2162 | 91.2
303.15 K, x1 = 0.7643 | 58.2
313.15 K, x1 = 0.4327 | 48.4
313.15 K, x1 = 0.5429 | 46.2
313.15 K, x1 = 0.6523 | 42.5
313.15 K, x1 = 0.8822 | 36.3
323.15 K, x1 = 1 | 24.2
333.15 K, x1 = 0.6523 | 21.8
343.15 K, x1 = 0.1119 | 21.9
343.15 K, x1 = 0.2162 | 19.9
343.15 K, x1 = 0.8822 | 14.5
353.15 K, x1 = 0.1119 | 16.5
353.15 K, x1 = 0.4327 | 13.7
353.15 K, x1 = 0.5429 | 13.2
353.15 K, x1 = 1 | 10.9

CCCCCC(=O)O + CCCC[P+](CCCC)(CCCC)CCCC.[Br-]
Details | viscosity [mPa·s]
298 K, 100 kPa, x2 = 0.5 | 290

CC#N + C[N+](C)(C)CCC[n+]1ccccc1.N#C[N-]C#N.N#C[N-]C#N
100 kPa, x2 = 0
Details | viscosity [mPa·s]
328.15 K | 0.275
333.15 K | 0.266
